# From PMC11837686, “γ-Secretase modulator resistance of an aggressive Alzheimer-causing presenilin mutant can be overcome in the heterozygous patient state by a set of advanced compounds” (Alzheimer's Research & Therapy, 2025)
# “And” between values parts separate entries of the source, which are not always exact repeats. Equal values may be shown once. “Also recorded” adds a separate entry of the source. Read-outs that look alike come from different tables or passages of the source.
# What was measured:
# [1] = molecular target: γ-secretase (Aβ42) in H4/sw cell line (Homo sapiens, UniProt P49768+P49810); assay: Aβ42 AlphaLISA dose–response in H4/sw cells
# Protocol: (§2) After three days of incubation, the medium was harvested, centrifuged and the supernatant was used for Aβ measurements by immunoassays.
# (§3) To analyse GSM dose-responses and determine IC50 values for Aβ42 inhibition, secreted Aβ species of HEK293/sw cells were analysed by sandwich immunoassay (MSD) using SULFO-tagged C-terminal specific antibodies to Aβ37, Aβ38, Aβ40 and Aβ42 as described [25] or, in case of H4/sw cells by an Aβ42 AlphaLISA immunoassay kit according to the instructions of the supplier (PerkinElmer) as described [38]. Notch1 cleavage reporter assay was performed as described [38].
# (§4) (A) The Aβ42-lowering effects of the GSMs used in this study were additionally characterised in dose-response curves on the H4/sw cell line, measuring Aβ42 levels after over-night incubations with an Aβ42-AlphaLisa. Effects of compounds on Notch1 processing were recorded using a Notch1 reporter assay. […] Means ± SEM of 4–7 independent experiments with 2 technical replicates each are shown. (B) IC50 values for Aβ42 calculated from the experiments in (A).
# [2] = molecular target: T1, γ-secretase in WT (WT/WT) MEF cells (Mus musculus, UniProt P49769+Q61144); assay: Secreted Aβ species by ELISA (IBL), WT/WT MEF cells; conditions: for Secreted Aβ38: RO7019009 500 nM
# Excerpt: Immortalised embryonic fibroblast cells from mice expressing human APP and either hetero- or homozygously knocked-in PS1 L166P [36] were generated as follows. For the production of mouse embryonic fibroblasts (MEF), all mice interbred were homozygous APP YAC transgenic mice. Primary MEFs were isolated from 14 days (E14) post-conception mouse embryos from the crossing of APP YAC × PSEN1 L166P (-/-) with APP YAC × PSEN1 L166P (-/-) mice to establish WT/WT MEF lines as well as APP YAC × PSEN1 L166P ( +/-) with APP YAC × PSEN1 L166P (+ / +) mice to establish WT/L166P and L166P/L166P MEF lines. […] The tissue was then triturated 5 times with a 1 ml pipet. Trypsin was inactivated by adding 25 ml of medium (DMEM with 25 mM glucose, 10% FBS, 100 U/ml penicillin, 100 μg/ml streptomycin, 0.25 μg/ml amphotericin B, 6 mM glutamine and 1.5 mM pyruvate). The cell suspension was passed through a cell strainer and centrifuged for 15 min at 200 g. The cell pellet was resuspended in fresh media and plated. After 24 h, media was changed again to eliminate dead cells and debris. To obtain immortalised MEF lines, primary cells at passage 2–3 were transfected (FuGENE6, Promega) with a plasmid containing the SV40 T antigen cDNA. Immortalised cells were selected from individual colonies and maintained in media containing 500 μg/ml of geneticin (G418). Cells were kept at 37 °C with 5% CO2 in a humidified incubator. MEFs from passage 10 + were used for all the experiments and cultured in DMEM supplemented with 10% FCS and G418 (200 µg/ml). […]
# (§5) Possible effects of compound treatment to cell viability were recorded using the CytoTox-Glo cell viability assay (Promega) following the instructions of the manufacturer. […]
# Immunoblot analysis of secreted Aβ was performed as described [52]. To analyse GSM dose-responses and determine IC50 values for Aβ42 inhibition, secreted Aβ species of HEK293/sw cells were analysed by sandwich immunoassay (MSD) using SULFO-tagged C-terminal specific antibodies to Aβ37, Aβ38, Aβ40 and Aβ42 as described [25] or, in case of H4/sw cells by an Aβ42 AlphaLISA immunoassay kit according to the instructions of the supplier (PerkinElmer) as described [38]. […] GSM effects on secreted Aβ species in conditioned medium of MEF KI cells or iPSC-derived neurons were either quantified by ELISA using end-specific C-terminal antibodies to Aβ38, Aβ40, Aβ42 and Aβ43 obtained from IBL [16, 53] or MSD sandwich-immunoassay (Aβ37, see above). Total Aβ in conditioned medium of iPSC-derived neurons were measured using MSD sandwich-immunoassay using anti-Aβ antibodies 2D8 (biotinylated, capture) and 4G8 (detection) as described previously [54]. […] Protein bands from immunoblots were quantified using the LAS-4000 image reader (Fujifilm Life Science) and Multi-Gauge V3.0 software for analysis.
# [3] = molecular target: T2, endogenous γ-secretase in HEK293/sw cells (Homo sapiens, UniProt P49768+P49810); assay: Aβ dose–response in HEK293/sw cells, MSD sandwich immunoassay
# Protocol: (§6) Possible effects of compound treatment to cell viability were recorded using the CytoTox-Glo cell viability assay (Promega) following the instructions of the manufacturer. […] After three days of incubation, the medium was harvested, centrifuged and the supernatant was used for Aβ measurements by immunoassays.
# (§7) To analyse GSM dose-responses and determine IC50 values for Aβ42 inhibition, secreted Aβ species of HEK293/sw cells were analysed by sandwich immunoassay (MSD) using SULFO-tagged C-terminal specific antibodies to Aβ37, Aβ38, Aβ40 and Aβ42 as described [25] or, in case of H4/sw cells by an Aβ42 AlphaLISA immunoassay kit according to the instructions of the supplier (PerkinElmer) as described [38]. […] GSM effects on secreted Aβ species in conditioned medium of MEF KI cells or iPSC-derived neurons were either quantified by ELISA using end-specific C-terminal antibodies to Aβ38, Aβ40, Aβ42 and Aβ43 obtained from IBL [16, 53] or MSD sandwich-immunoassay (Aβ37, see above). Total Aβ in conditioned medium of iPSC-derived neurons were measured using MSD sandwich-immunoassay using anti-Aβ antibodies 2D8 (biotinylated, capture) and 4G8 (detection) as described previously [54].
# [4] = molecular target: T1, γ-secretase in WT (WT/WT) MEF cells; assay: Aβ species by Tris-Bicine urea SDS-PAGE/immunoblot, WT/WT MEF cells; conditions: RO-02 and RO7019009 500 nM, BPN-15606 360 nM; for Aβ40 (gel): WT MEF (genotype not given), RO5254601 2.5 µM; for Short species Aβ37 and Aβ38 (gel): WT MEF
# [5] = molecular target: T3, γ-secretase in homozygous (L166P/L166P) PS1 L166P KI MEF cells (Mus musculus, UniProt P49769+Q61144, L166P); assay: Aβ species by Tris-Bicine urea SDS-PAGE/immunoblot, homozygous PS1 L166P KI MEF cells
# Protocol: as §6, §7
# [6] = test system: γ-secretase in heterozygous (WT/L166P) PS1 L166P KI MEF cells; assay: Aβ species by Tris-Bicine urea SDS-PAGE/immunoblot, heterozygous PS1 L166P KI MEF cells; conditions: for Aβ40 (gel): heterozygous KI MEF (genotype not given), RO5254601 2.5 µM; for Aβ40 (gel) / Short species Aβ37 and Aβ38 (gel): RO-02 and RO7019009 500 nM, BPN-15606 360 nM
# [7] = test system: Notch1 cleavage; assay: Notch1 cleavage reporter assay (NICD release), HEK293-based reporter cell line; conditions: dose–response
# Protocol: as §2, §3, §4
# [8] = test system: PS1 and PS2 NTF and CTF; assay: Photoaffinity labeling with RO6874585 and competition, HEK293 membrane fractions; assay type: binding, human; conditions: for Competition of RO6874585 crosslinking to presenilin: 100x excess of competitor
# Protocol: (§1) Membrane fractions of HEK293 or MEF cells were incubated with RO6874585 in the presence or absence of other GSMs used as competitor compounds as described previously. In brief, after photoactivation, samples were solubilised using SDS-containing buffer and the crosslinked proteins were pulled down with streptavidin-sepharose. Thereafter, samples were analysed by immunoblotting.
# [9] = test system: γ-secretase in heterozygous (WT/L166P) PS1 L166P KI MEF cells; assay: Secreted Aβ species by ELISA (IBL), heterozygous PS1 L166P KI MEF cells; conditions: for Aβ38 level in treated cells, % of total Aβ: GSM-1 2.5 µM, RO-02 500 nM, one range given for both compounds and both 'other genotypes'; for Combined pathogenic species (Aβ42 + Aβ43) / Secreted Aβ43: 24 h, RO7019009 500 nM, RO5254601 2.5 µM
# Excerpt: Immortalised embryonic fibroblast cells from mice expressing human APP and either hetero- or homozygously knocked-in PS1 L166P [36] were generated as follows. For the production of mouse embryonic fibroblasts (MEF), all mice interbred were homozygous APP YAC transgenic mice. Primary MEFs were isolated from 14 days (E14) post-conception mouse embryos from the crossing of APP YAC × PSEN1 L166P (-/-) with APP YAC × PSEN1 L166P (-/-) mice to establish WT/WT MEF lines as well as APP YAC × PSEN1 L166P ( +/-) with APP YAC × PSEN1 L166P (+ / +) mice to establish WT/L166P and L166P/L166P MEF lines. […] The tissue was then triturated 5 times with a 1 ml pipet. Trypsin was inactivated by adding 25 ml of medium (DMEM with 25 mM glucose, 10% FBS, 100 U/ml penicillin, 100 μg/ml streptomycin, 0.25 μg/ml amphotericin B, 6 mM glutamine and 1.5 mM pyruvate). The cell suspension was passed through a cell strainer and centrifuged for 15 min at 200 g. The cell pellet was resuspended in fresh media and plated. After 24 h, media was changed again to eliminate dead cells and debris. To obtain immortalised MEF lines, primary cells at passage 2–3 were transfected (FuGENE6, Promega) with a plasmid containing the SV40 T antigen cDNA. Immortalised cells were selected from individual colonies and maintained in media containing 500 μg/ml of geneticin (G418). Cells were kept at 37 °C with 5% CO2 in a humidified incubator. MEFs from passage 10 + were used for all the experiments and cultured in DMEM supplemented with 10% FCS and G418 (200 µg/ml). […] H4 cells overexpressing APPsw (H4/sw) and HEK293-based Notch1 reporter cell lines were cultured as described [38].
# as §6
# Immunoblot analysis of secreted Aβ was performed as described [52]. To analyse GSM dose-responses and determine IC50 values for Aβ42 inhibition, secreted Aβ species of HEK293/sw cells were analysed by sandwich immunoassay (MSD) using SULFO-tagged C-terminal specific antibodies to Aβ37, Aβ38, Aβ40 and Aβ42 as described [25] or, in case of H4/sw cells by an Aβ42 AlphaLISA immunoassay kit according to the instructions of the supplier (PerkinElmer) as described [38]. Notch1 cleavage reporter assay was performed as described [38]. GSM effects on secreted Aβ species in conditioned medium of MEF KI cells or iPSC-derived neurons were either quantified by ELISA using end-specific C-terminal antibodies to Aβ38, Aβ40, Aβ42 and Aβ43 obtained from IBL [16, 53] or MSD sandwich-immunoassay (Aβ37, see above). Total Aβ in conditioned medium of iPSC-derived neurons were measured using MSD sandwich-immunoassay using anti-Aβ antibodies 2D8 (biotinylated, capture) and 4G8 (detection) as described previously [54]. […] Protein bands from immunoblots were quantified using the LAS-4000 image reader (Fujifilm Life Science) and Multi-Gauge V3.0 software for analysis.
# [10] = molecular target: γ-secretase in WT iPSC-derived cortical neurons (Homo sapiens, UniProt P49768+P49810); assay: Secreted Aβ species by immunoassays, WT iPSC-derived cortical neurons; conditions: 3 days, RO7019009 500 nM or 2.5 µM, RO5254601 2.5 µM
# Protocol: The media was exchanged (NM/DOX) for the next two days. […] On day 6 and 9 cells were fed with NM/DOX complemented with 300 ng/ml puromycin dihydrochloride (puro, VWR, Cat. No. J593). Afterwards, the medium was switched to NM supplemented with 5 μM 5-fluorouracil (5FU, Sigma, Cat. No. F6627) with half feeds to remove the remaining dividing stem and neuron precursor cells. From day 13, cells were grown in NB (Neurobasal, penicillin–streptomycin) with B27 Plus (Thermo Fisher, Cat. No. A3582801) and 5FU. 5FU was removed in the following feeds. The cells were grown until day 24 before treatment started and analysed at day 27.
# as §5
# Immunoblot analysis of secreted Aβ was performed as described [52]. […] GSM effects on secreted Aβ species in conditioned medium of MEF KI cells or iPSC-derived neurons were either quantified by ELISA using end-specific C-terminal antibodies to Aβ38, Aβ40, Aβ42 and Aβ43 obtained from IBL [16, 53] or MSD sandwich-immunoassay (Aβ37, see above). Total Aβ in conditioned medium of iPSC-derived neurons were measured using MSD sandwich-immunoassay using anti-Aβ antibodies 2D8 (biotinylated, capture) and 4G8 (detection) as described previously [54]. […]
# [11] = test system: iPSC-derived cortical neurons (total Aβ); assay: Total Aβ by MSD sandwich immunoassay (2D8/4G8) in iPSC-derived neurons; conditions: WT, heterozygous and homozygous neurons, 3 days; RO7019009 500 nM or 2.5 µM, RO5254601 2.5 µM
# Protocol: as §6, §7
# [12] = molecular target: γ-secretase in homozygous L166P/L166P iPSC-derived cortical neurons (Homo sapiens, UniProt P49768+P49810, L166P); assay: Secreted Aβ species by immunoassays, homozygous PS1 L166P KI iPSC-derived neurons; conditions: 3 days
# Protocol: as §6
# (§8) Immunoblot analysis of secreted Aβ was performed as described [52]. To analyse GSM dose-responses and determine IC50 values for Aβ42 inhibition, secreted Aβ species of HEK293/sw cells were analysed by sandwich immunoassay (MSD) using SULFO-tagged C-terminal specific antibodies to Aβ37, Aβ38, Aβ40 and Aβ42 as described [25] or, in case of H4/sw cells by an Aβ42 AlphaLISA immunoassay kit according to the instructions of the supplier (PerkinElmer) as described [38].
# [13] = test system: γ-secretase in heterozygous WT/L166P iPSC-derived cortical neurons; assay: Secreted Aβ species by immunoassays, heterozygous PS1 L166P KI iPSC-derived neurons; conditions: 3 days, RO7019009 500 nM or 2.5 µM, RO5254601 2.5 µM
# Protocol: as §6, §8
# [14] = molecular target: T4, PS1 L166P (Mus musculus, UniProt P49769, L166P); assay: Photoaffinity labeling with RO6874585, WT or PS1 L166P KI MEF membrane fractions; assay type: binding
# T4 construct: crosslinking efficiencies of PS1 NTF and PS1 CTF in WT or PS1 L166P KI MEF cell membranes; endogenous in cells; host or cells: membrane fractions of PS1 L166P knock-in MEF cells
# Protocol: as §1
# [15] = test system: brain-derived cell lines; parameters: method as in PMID 31762188; conditions: read-out: IC50 (Aβ42); cited from earlier work
# [16] = molecular target: T2, endogenous γ-secretase in HEK293/sw cells; parameters: endogenous γ-secretase in HEK293/sw cells; endogenous in cells; host or cells: HEK293/sw (HEK293 stably expressing APPsw); conditions: read-out: IC50 (Aβ42); cited from earlier work
# [17] = molecular target: T3, γ-secretase in homozygous (L166P/L166P) PS1 L166P KI MEF cells; assay: Secreted Aβ species by ELISA (IBL), homozygous PS1 L166P KI MEF cells; conditions: GSM-1 2.5 µM, RO-02 500 nM, one range printed for both compounds, measurable in half of the samples
# Excerpt: Immortalised embryonic fibroblast cells from mice expressing human APP and either hetero- or homozygously knocked-in PS1 L166P [36] were generated as follows. For the production of mouse embryonic fibroblasts (MEF), all mice interbred were homozygous APP YAC transgenic mice. Primary MEFs were isolated from 14 days (E14) post-conception mouse embryos from the crossing of APP YAC × PSEN1 L166P (-/-) with APP YAC × PSEN1 L166P (-/-) mice to establish WT/WT MEF lines as well as APP YAC × PSEN1 L166P ( +/-) with APP YAC × PSEN1 L166P (+ / +) mice to establish WT/L166P and L166P/L166P MEF lines. […] The tissue was then triturated 5 times with a 1 ml pipet. […]
# as §5
# Immunoblot analysis of secreted Aβ was performed as described [52]. To analyse GSM dose-responses and determine IC50 values for Aβ42 inhibition, secreted Aβ species of HEK293/sw cells were analysed by sandwich immunoassay (MSD) using SULFO-tagged C-terminal specific antibodies to Aβ37, Aβ38, Aβ40 and Aβ42 as described [25] or, in case of H4/sw cells by an Aβ42 AlphaLISA immunoassay kit according to the instructions of the supplier (PerkinElmer) as described [38]. […]
# [18] = read-out: Aβ42 IC50 [nM ± SD], H4/sw cells, over-night incubation, Aβ42-AlphaLisa, 4–7 independent experiments
smiles,measurement,setting,value
"COc1nc(-c2cc(C)c(N[C@@H](C)c3ccc(F)cc3)nn2)ccc1-n1cnc(C)c1 [BPN-15606, reference compound]",IC50,[1],16.9 ± 8.22 nM
same,Secreted Aβ42,"[2]; 24 h, BPN-15606 360 nM",reduced Aβ42 levels
same,Secreted Aβ38,"[2]; 24 h, BPN-15606 360 nM",increase of Aβ38
same,IC50,"[3]; IC50 (Aβ42), 16–18 h, MSD sandwich immunoassay, this study",~12 nM and 12 nM
same,Aβ40 (gel),[4],strong reduction of Aβ40
same,Short species Aβ37 and Aβ38 (gel),[4],"increase of both short species, Aβ37 and Aβ38"
same,Aβ43 (gel),[5]; BPN-15606 500 nM,strong reduction of Aβ43
same,Aβ40 (gel),[6],strong reduction of Aβ40
"C[C@H](NC(=O)Cc1cc(F)cc(F)c1)C(=O)N[C@@H]1C(=O)N(C)c2ccccc2-c2ccccc21 [DBZ, dibenzazepine, reference compound]",IC50,[1]; [18],0.33 ± 0.01 nM
same,Notch1 cleavage / NICD release,[7],reduced the levels of the Notch1 intracellular domain
"CC(C)CCC(c1ccc(Cl)cc1)N1CCC(CC(=O)O)CC1c1ccc(C(F)(F)F)cc1 (stereo not drawn) [GSM-1, reference compound]",Competition of RO6874585 crosslinking to presenilin,[8],did not or only weakly compete binding
same,"Aβ38 level in treated cells, % of total Aβ",[9],30–60%
CC(C)N1CCCC(c2ccc3[nH]c(C(=O)Nc4cccc(F)c4)cc3c2)C1 (stereo not drawn) [RO5218165],Competition of RO6874585 crosslinking to presenilin,[8],differential competition for NTF and CTF binding
same,IC50,[1]; [18],207 ± 32.4 nM
CC(C)N1CCC(Oc2ccc3[nH]c(C(=O)Nc4ccc(F)c(F)c4)cc3c2)C1 (stereo not drawn) [RO5218863],Competition of RO6874585 crosslinking to presenilin,[8],competed with presenilin binding
same,IC50,[1]; [18],229 ± 69.8 nM
CC(=O)N1CCCC(c2ccc3[nH]c(C(=O)Nc4cc(F)cc(F)c4)cc3c2)C1 (stereo not drawn) [RO5254601],Competition of RO6874585 crosslinking to presenilin,[8],competed with presenilin binding of RO6874585
same,IC50,[1],63.3 ± 24.1 nM
same,Aβ37 production,[3]; dose–response,increased Aβ37
same,Aβ38 production,[3]; dose–response,increased the production of Aβ38
same,Aβ40 production,[3]; dose–response,largely unaffected
same,Aβ40 (gel),[4],little effect on Aβ40
same,Effect on Aβ species profile,[10],primarily acted on Aβ42 and Aβ38
same,Total Aβ levels,[11],without affecting total Aβ levels
same,Combined pathogenic species (Aβ42 + Aβ43),[9],lower the ratio of combined pathogenic species
same,Secreted Aβ43,[9],could not lower Aβ43
same,Notch1 cleavage / NICD release,[7],did not impair Notch1 cleavage
same,"Long species (Aβ42 + Aβ43), overall fraction / sum",[12]; RO5254601 2.5 µM,not reduced; also recorded: barely reduced the sum of long Aβ42 and Aβ43 species
same,Secreted Aβ42,[13],reduced only Aβ42
same,Secreted Aβ43,[13],had no effect on Aβ43
same,Aβ42 (gel),[5]; RO5254601 2.5 µM,markedly lowering Aβ42
same,Aβ40 (gel),[6],little effect on Aβ40
O=C(CCCC[C@@H]1SC[C@@H]2NC(=O)N[C@@H]21)NCCOCCOCCOCCNC(=O)COc1ccc(C(=O)c2ccc(OCC(=O)N3CC[C@@H](Oc4ccc5[nH]c(C(=O)Nc6ccc(F)c(F)c6)cc5c4)C3)cc2)cc1 [RO6874585],Proteins labeled by photoaffinity probe,"[8]; UV crosslinking, streptavidin pull-down, immunoblot",PS1 and PS2 NTF and CTF as specific targets
same,Photoaffinity labeling of PS1 L166P versus WT,[14],without apparent differences to the WT
same,Aβ42 lowering,[1]; H4/sw cells,lowering Aβ42
same,IC50,[1]; [18],128 ± 44.7 nM
same,Notch1 cleavage / NICD release,[7],without inhibiting Notch1 processing
Cc1nsc(N2CC3CCC(C2)C3Nc2nc3c(-c4ccc(F)c(F)c4F)cccn3n2)n1 (stereo not drawn) [RO7019009],Competition of RO6874585 crosslinking to presenilin,[8],differential competition for NTF and CTF binding
same,IC50,[15],≥ 2 nM
same,IC50,[1],3.76 ± 0.6 nM
same,Secreted Aβ38,"[2]; 24 h, BPN-15606 360 nM",strongly increased Aβ38
same,Aβ40 (gel),[4],strong reduction of Aβ40
same,Short species Aβ37 and Aβ38 (gel),[4],"increase of both short species, Aβ37 and Aβ38"
same,Effect on Aβ species profile,[10],reduced Aβ40 and Aβ42 while increasing both shorter species Aβ37 and Aβ38
same,Total Aβ levels,[11],without affecting total Aβ levels
same,Combined pathogenic species (Aβ42 + Aβ43),[9],effective lowering of the generation of total pathogenic Aβ42/43 species
same,Secreted Aβ43,[9],only potently effective compound in lowering Aβ43
same,Effect on Aβ species profile,[12]; RO7019009 500 nM or 2.5 µM,"efficiently reduced not only Aβ40 but also Aβ43 and, especially at higher concentrations, Aβ42"
same,Secreted Aβ42,[13],reduced both Aβ42 and Aβ43
same,Secreted Aβ43,[13],reduced both Aβ42 and Aβ43
same,Aβ38 (gel),[5]; RO7019009 500 nM,increased generation of Aβ38
same,Processivity: ratio of shorter Aβ37/38 combined with Aβ40 to longer Aβ42/43 species,[5]; RO7019009 500 nM,increased processivity
same,Aβ40 (gel),[6],strong reduction of Aβ40
same,Processivity: ratio of shorter Aβ37/38 combined with Aβ40 to longer Aβ42/43 species,"[6]; heterozygous KI MEF, RO7019009 500 nM",increased processivity
same,Short species Aβ37 and Aβ38 (gel),[6]; heterozygous KI MEF,"increase of both short species, Aβ37 and Aβ38"
same,IC50,[16],~14 nM and 14 nM
"COc1cc(Nc2nc(Cc3ccc(Cl)cc3)cc(C(C)(C)O)n2)ccc1-n1cnc(C)c1 [RO-02, reference compound]",Competition of RO6874585 crosslinking to presenilin,[8],did not or only weakly compete binding
same,IC50,[1],20.5 ± 4.38 nM
same,"Aβ38 level in treated cells, % of total Aβ","[2]; GSM-1 2.5 µM, RO-02 500 nM, one range given for both compounds and both 'other genotypes'",30–60%
same,Aβ40 (gel),[4],strong reduction of Aβ40
same,Short species Aβ37 and Aβ38 (gel),[4],"increase of both short species, Aβ37 and Aβ38"
same,"Aβ38 level in treated cells, % of total Aβ",[17],6–8%
same,"Aβ38 level in treated cells, % of total Aβ",[9],30–60%
same,Aβ40 (gel),[6],strong reduction of Aβ40
same,Short species Aβ37 and Aβ38 (gel),[6]; heterozygous KI MEF,"increase of both short species, Aβ37 and Aβ38"
same,IC50,[16],~15 nM and 15 nM
